Legend:
[1] = biological target: T1, 5-lipoxygenase (Rattus norvegicus, UniProt P12527); test: 5-Lipoxygenase-inhibiting activity (Test Example 1, HPLC of 5-HETE); format: biochemical; conditions: RBL-1 cell supernatant; 50 μg arachidonic acid; pH 7.4; 37° C., 15 min; HPLC peak of 5-HETE; read-out: 50% Inhibitory concentration
T1 construct: The supernatant is employed as an enzyme solution of a 5-lipoxygenase; endogenous in cells; host or cells: RBL-1 rat basophilic leukemia cells, sonicated, 15,000 rpm supernatant (crude, not purified)
T1 sequence (P12527 1-673): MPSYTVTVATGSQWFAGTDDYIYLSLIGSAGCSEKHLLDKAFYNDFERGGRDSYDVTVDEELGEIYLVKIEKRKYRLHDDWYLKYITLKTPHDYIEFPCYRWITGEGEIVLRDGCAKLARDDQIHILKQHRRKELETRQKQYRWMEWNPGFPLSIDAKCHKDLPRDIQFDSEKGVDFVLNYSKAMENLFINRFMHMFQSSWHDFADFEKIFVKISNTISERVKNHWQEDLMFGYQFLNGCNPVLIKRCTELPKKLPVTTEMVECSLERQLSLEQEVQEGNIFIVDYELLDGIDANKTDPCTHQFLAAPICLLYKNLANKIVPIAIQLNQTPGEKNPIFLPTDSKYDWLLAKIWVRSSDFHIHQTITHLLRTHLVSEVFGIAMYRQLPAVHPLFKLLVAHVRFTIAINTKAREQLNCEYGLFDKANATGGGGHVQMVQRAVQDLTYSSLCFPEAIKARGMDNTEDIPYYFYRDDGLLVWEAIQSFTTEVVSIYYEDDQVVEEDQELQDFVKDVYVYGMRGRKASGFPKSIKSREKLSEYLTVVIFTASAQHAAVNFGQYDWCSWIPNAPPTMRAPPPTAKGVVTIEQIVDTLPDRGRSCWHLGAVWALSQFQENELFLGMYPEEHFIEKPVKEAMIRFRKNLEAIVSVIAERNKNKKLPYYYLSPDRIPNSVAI
Experimental: A suspension of rat-origin basophilic leukemia cell strain RBL-1 in an Eagle basal medium (manufactured by Gibco Laboratories) containing 10% FCS is cultivated in an 5% CO2 incubator at 37° C. The culture is then centrifuged at 4° C. to collect cells. The cells are re-suspended in a phosphate buffer solution at pH 7.4 to a cell density of 1.0-3.0×10^7 cells/ml. The suspended cells are treated by an ultrasonic cell blender and then centrifuged at 15,000 rpm at 4° C. for 30 min. The supernatant is employed as an enzyme solution of a 5-lipoxygenase. In test tubes are placed 50 μg of arachdonic acid and an isoprenoid derivative of the invention to be tested. To each of the test tubes are added 0.30 ml of phosphate buffer, 0.20 ml of the enzyme solution as prepared above and 5 μl of a 100 mM CaCl2 (calcium chloride) solution. The mixture is allowed to react at 37° C. for 15 min. To the reaction mixture, after ice-cooling, is added one drop of 1N HCl (hydrochloric acid), and the resulting mass is extracted with 2 ml of ethyl acetate. The extract is concentrated to dryness followed by addition of 100 μl of methanol for use as a test specimen.
Said specimen is injected into octadecylsilane (ODS) reverse phase high performance liquid chromatography (HPLC), eluted with methanol - acetonitrile - water - acetic acid (15 : 45 : 35 : 0.01). Peak for 5-HETE (5-(s)-hydroxy-6,8,11,14-eicosatetraenoic acid), a 5-lipoxygenase product detected in approximately 25 min. is measured. The 5-lipoxygenase-inhibiting activity is determined by decrease in the peak for said 5-lipoxygenase product.
(§1) 50% inhibitory concentration as referred to in Tables 1 and 2 means concentration of an isoprenoid derivative required for controlling the production of […] as described above to 50% by introducing said isoprenoid derivative when production of 5-HETE without isoprenoid derivative of the invention is taken as 100%.

[2] = test system: stomach lesions (ulcer index) in male Wistar rats; test: Anti-ulcer activity (ethanol-hydrochloric acid gastric lesions); format: in vivo, rat (male Wistar); conditions: 100 mg/kg, oral, 1 h before ethanol-hydrochloric acid; male Wistar rats fasted 24 h
Experimental: To male Wistar rats (weighing 150-200 g) fasted for 24 hours was administered orally an isoprenoid derivative of the invention. One hour later, ethanol-hydrochloric acid (containing 150 mM hydrochloric acid in 60% ethanol) was orally given in a volume of 0.5 ml/100 g bodyweight.
One hour later, the animals were sacrificed with ether. The stomach was excised and, after formalin treatment, measured for the length (mm) of lesions developed in glandular portions of the stomach. Total length of the lesions per animal was taken as ulcer index.
Percent inhibition of ulceration as referred to in the table is a value indicating the ulcer index for the rat without an isoprenoid derivative of the invention orally given minus the ulcer index for the orally administered rat divided by the ulcer index for the orally non-administered rat multiplied by 100.

[3] = biological target: T1, 5-lipoxygenase; test: 5-Lipoxygenase-inhibiting activity (Test Example 2, radiolabeled arachidonic acid, TLC of 5-HETE); format: biochemical; conditions: RBL-1 cell supernatant, pH 7.4, 37° C., 15 min, radio-TLC of 5-HETE, read-out: 50% Inhibitory concentration
Experimental: A suspension of rat-origin basophilic leukemia cell strain RBL-1 in an Eagle basal medium (manufactured by Gbco Laboratories) containing 10 % FCS is cultivated in a 5% CO2 incubator at 37° C. The culture is then centrifuged at 4° C. to collect cells. The cells are re-suspended in a phosphate buffer solution at pH 7.4 to a cell density of 1.0 -3.0×10^7 cells/ml. The suspended cells are treated by an ultrasonic cell blender and then centrifuged at 15,000 rpm at 4° C. for 30 min. The supernant is employed as an enzyme solution of a 5-lipoxygenase. In test tubes are placed 20 μl of radiolabeled arachidonic acid (10 μl Ci/ml) and an isoprenoid derivative of the invention to be tested. To each of the test tubes are added 0.40 ml of phosphate buffer, 0.10 ml of the enzyme solution as prepared above and […] of a 100 mM CaCl2 (calcium chloride). The mixture is allowed to react at 37° C. for 15 min. To the reaction mixture, after ice-cooling, is added one drop of 1N HCl (hydrochloric acid), and the resulting mass is extracted with 2 ml of ethyl acetate. The extract is concentrated, and the concentrate is spotted and developed on a silica gel thin layer plate (Merck 60F254). Measurement of the inhibitory activity is accomplished by collecting the portion corresponding to 5-HETE (5-(s)-hydroxy-6,8,11,14-eicosatetraenoic acid), a 5-lipoxygenase product detected by a radio-thin layer chromatogram scanner (Dunnschicht-Scanner II LB2723, manufactured by Berthold) and measuring radioactivity by a liquid scintillation counter. The 5-lipoxygenase-inhibiting activity is determined by decrease in the production of said 5-lipoxygenase product.
as §1

Row | IC50 [1] | IC50 [3] | Structure (SMILES) | Percent inhibition of ulceration [2]
1 | 500 nM |  | COc1cc(/C=C/C=C/C(=O)CCC=C(C)C)ccc1O [Example 1, 1-(4'-hydroxy-3'-methoxyphenyl)-9-methyl-1,3,8-decatrien-5-one] | 79.3%
2 | 380 nM |  | COc1cc(/C=C/C=C/C(=O)CC/C=C(\C)CCC=C(C)C)ccc1O [Example 2, 9,13-dimethyl-1-(4'-hydroxy-3'-methoxyphenyl)-1,3,8,12-tetradecatetraen-5-one] | 94.6%
3 | 800 nM |  | COc1cc(/C=C/C=C/C(=O)CC/C=C(\C)CC/C=C(\C)CCC=C(C)C)ccc1O [Example 3, 1-(4'-hydroxy-3'-methoxyphenyl)-9,13,17-trimethyl-1,3,8,12,16-octadecapentaen-5-one] | 85.0%
4 | 80 nM |  | CC(C)=CCCC(=O)/C=C/c1ccc(O)c(O)c1 [Example 4, 1-(3',4'-dihydroxyphenyl)-7-methyl-1,6-octadien-3-one] | 
5 |  | 3000 nM | COc1cc(/C=C/C(=O)OCC=C(C)C)ccc1O [Example 5, prenyl 4-hydroxy-3-methoxycinnamate] | 
6 |  | 400 nM | COc1cc(/C=C/C=C/C(=O)OCC=C(C)C)ccc1O [Example 6, prenyl 5-(3-methoxy-4-hydroxyphenyl)-2,4-pentadienoate] | 
7 |  | 26 nM | CC(C)=CCOC(=O)/C=C/C=C/c1ccc(O)c(O)c1 [Example 7, prenyl 5-(3,4-dihydroxyphenyl)-2,4-pentadienoate] | 
8 |  | 1200 nM | COc1cc(/C=C/C=C/C(=O)OC/C=C(\C)CCC=C(C)C)ccc1O [Example 8, geranyl 5-(4-hydroxy-3-methoxyphenyl)-2,4-pentadienoate] | 
9 |  | 260 nM | CC(C)=CCC/C(C)=C/COC(=O)/C=C/C=C/c1ccc(O)c(O)c1 [Example 9, geranyl 5-(3,4-dihydroxyphenyl)-2,4-pentadienoate] | 
10 |  | 650 nM | COc1cc(/C=C/C=C/C(=O)NCC=C(C)C)ccc1O [Example 11, 5-(4'-hydroxy-3'methoxyphenyl)pentadienoic acid prenylamide] | 
11 |  | 83 nM | COc1cc(/C=C/C=C/C(=O)NC/C=C(\C)CCC=C(C)C)ccc1O [Example 12, 5-(4'-hydroxy-3-methoxyphenyl)pentadienoic acid geranylamide] | 
12 |  | 310 nM | COc1cc(/C=C/C=C/C(=O)NC/C=C(\C)CC/C=C(\C)CCC=C(C)C)ccc1O [Example 13, 5-(4'-hydroxy3'-methoxyphenyl)pentadienoic acid (E,E)-farnesylamide] | 
13 |  | 920 nM | COc1cc(/C=C/C(=O)NC/C=C(\C)CCC=C(C)C)ccc1O [Example 14, 4-hydroxy-3-methoxycinnamic acid geranylamide] | 
14 |  | 11 nM | CC(C)=CCC/C(C)=C/CNC(=O)/C=C/C=C/c1ccc(O)c(O)c1 [Example 15, 5-(3',4'-dihydroxyphenyl)pentadienoic acid geranylamide] | 

Source: patent publication US5130483A, “Isoprenoid derivatives and pharmaceutical preparations containing the same” (Terumo Kabushiki Kaisha, priority 1987, dated 1992)
